{"source": "ChEMBL document CHEMBL4311992", "about": "“Discovery of 3-(((9H-purin-6-yl)amino)methyl)-4,6-dimethylpyridin-2(1H)-one derivatives as novel tubulin polymerization inhibitors for treatment of cancer” (Eur J Med Chem, 2019)", "key": {"[1]": {"test_system": "Calcium/calmodulin-dependent protein kinase kinase 2 (Homo sapiens), Q96RR4 [T85S]", "assay": "Inhibition of recombinant full-length human CAMKk2 T85S mutant assessed as residual activity at 10 uM using calmodulin as substrate measured after 40 mins in presence of [gamma33P]ATP by scintillation counting method"}, "[2]": {"biological_target": "Serine/threonine-protein kinase PAK 5 (Homo sapiens) (UniProt Q9P286)", "sequence (Q9P286 whole entry, looked up)": "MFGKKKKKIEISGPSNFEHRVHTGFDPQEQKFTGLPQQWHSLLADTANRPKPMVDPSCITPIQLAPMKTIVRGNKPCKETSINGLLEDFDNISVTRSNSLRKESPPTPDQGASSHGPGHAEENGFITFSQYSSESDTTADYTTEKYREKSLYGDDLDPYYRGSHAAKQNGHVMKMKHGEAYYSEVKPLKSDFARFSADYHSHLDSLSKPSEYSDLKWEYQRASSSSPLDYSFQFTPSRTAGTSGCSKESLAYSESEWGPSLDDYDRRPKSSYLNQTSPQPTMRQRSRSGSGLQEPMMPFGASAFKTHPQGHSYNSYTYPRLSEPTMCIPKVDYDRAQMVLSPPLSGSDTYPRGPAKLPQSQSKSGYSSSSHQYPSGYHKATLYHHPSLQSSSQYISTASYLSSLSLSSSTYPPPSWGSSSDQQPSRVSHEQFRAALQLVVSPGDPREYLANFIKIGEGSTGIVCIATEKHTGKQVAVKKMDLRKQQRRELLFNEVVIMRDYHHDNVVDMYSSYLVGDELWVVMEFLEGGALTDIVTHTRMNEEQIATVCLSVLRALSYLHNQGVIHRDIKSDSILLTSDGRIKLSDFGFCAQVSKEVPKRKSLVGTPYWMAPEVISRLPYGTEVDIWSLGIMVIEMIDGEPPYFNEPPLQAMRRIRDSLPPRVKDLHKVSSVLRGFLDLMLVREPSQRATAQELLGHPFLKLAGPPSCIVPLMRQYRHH", "assay": "Inhibition of recombinant human PAK5 (425 to end residues) assessed as residual activity at 10 uM using RRRLSFAEPG as substrate measured after 40 mins in presence of [gamma33P]ATP by scintillation counting method"}, "HCT-116 [3]": {"test_system": "HCT-116", "assay": "Induction of cell cycle arrest in human HCT116 cells assessed as accumulation at G2/M phase after 24 hrs by propidium iodide-staining based flow cytometry", "assay_type": "functional"}, "[4]": {"biological_target": "5'-AMP-activated protein kinase catalytic subunit alpha-1 (Homo sapiens) (UniProt Q13131)", "sequence (Q13131 whole entry, looked up)": "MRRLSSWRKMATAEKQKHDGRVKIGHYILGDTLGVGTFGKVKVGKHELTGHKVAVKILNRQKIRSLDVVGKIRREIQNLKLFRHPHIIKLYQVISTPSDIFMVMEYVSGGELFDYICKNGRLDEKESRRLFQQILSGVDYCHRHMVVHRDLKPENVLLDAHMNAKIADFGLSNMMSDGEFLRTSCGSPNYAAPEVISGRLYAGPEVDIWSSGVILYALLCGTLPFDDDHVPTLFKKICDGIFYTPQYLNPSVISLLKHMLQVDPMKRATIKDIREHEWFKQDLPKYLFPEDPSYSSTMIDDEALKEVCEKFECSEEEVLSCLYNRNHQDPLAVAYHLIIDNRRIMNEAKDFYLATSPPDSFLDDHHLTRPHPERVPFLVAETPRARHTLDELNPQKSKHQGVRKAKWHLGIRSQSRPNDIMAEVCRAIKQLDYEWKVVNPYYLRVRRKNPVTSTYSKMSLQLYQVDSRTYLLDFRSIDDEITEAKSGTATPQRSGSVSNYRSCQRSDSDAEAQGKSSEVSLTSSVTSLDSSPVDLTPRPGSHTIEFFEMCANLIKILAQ", "assay": "Inhibition of recombinant full-length human AMPKalpha1 assessed as residual activity at 10 uM using AMARAASAAALARRR as substrate measured after 40 mins in presence of [gamma33P]ATP by scintillation counting method"}, "HT-29": {"test_system": "HT-29", "assay": "Antiproliferative activity against human HT-29 cells assessed as reduction in cell viability after 72 hrs by MTT assay", "assay_type": "functional, cell-based", "details": "HT-29, 72 h"}, "[5]": {"test_system": "Mast/stem cell growth factor receptor Kit (Homo sapiens), P10721 [D816H]", "sequence (P10721 whole entry D816H)": "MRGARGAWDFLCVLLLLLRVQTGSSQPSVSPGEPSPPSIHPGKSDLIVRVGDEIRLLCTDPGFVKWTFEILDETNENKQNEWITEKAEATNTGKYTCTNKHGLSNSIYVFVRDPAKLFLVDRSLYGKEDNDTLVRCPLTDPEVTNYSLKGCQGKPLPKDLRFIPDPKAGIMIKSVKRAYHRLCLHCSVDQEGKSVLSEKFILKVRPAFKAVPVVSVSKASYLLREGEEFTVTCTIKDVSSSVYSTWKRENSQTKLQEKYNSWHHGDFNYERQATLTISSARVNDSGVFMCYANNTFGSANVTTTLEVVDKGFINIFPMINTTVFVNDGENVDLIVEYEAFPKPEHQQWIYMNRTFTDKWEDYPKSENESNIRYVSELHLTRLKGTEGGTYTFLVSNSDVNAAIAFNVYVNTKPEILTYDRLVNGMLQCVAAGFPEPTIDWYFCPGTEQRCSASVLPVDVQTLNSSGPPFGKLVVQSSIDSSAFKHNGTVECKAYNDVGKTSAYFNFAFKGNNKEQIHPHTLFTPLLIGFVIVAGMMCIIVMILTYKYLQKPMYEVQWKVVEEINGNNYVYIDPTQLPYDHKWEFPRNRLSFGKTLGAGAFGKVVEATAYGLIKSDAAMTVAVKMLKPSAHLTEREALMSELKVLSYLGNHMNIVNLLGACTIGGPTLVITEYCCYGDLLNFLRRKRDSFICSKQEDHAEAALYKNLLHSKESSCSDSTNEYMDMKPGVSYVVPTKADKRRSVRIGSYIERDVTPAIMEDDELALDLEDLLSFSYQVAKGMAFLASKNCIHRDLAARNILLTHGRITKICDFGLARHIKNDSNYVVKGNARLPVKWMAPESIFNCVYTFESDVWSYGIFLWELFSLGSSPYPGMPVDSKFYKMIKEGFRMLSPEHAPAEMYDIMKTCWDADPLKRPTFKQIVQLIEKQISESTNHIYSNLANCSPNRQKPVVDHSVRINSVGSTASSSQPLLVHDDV", "assay": "Inhibition of recombinant human c-Kit D816H mutant (544 to end residues) assessed as residual activity at 10 uM using GGMEDIYFEFMGGKKK as substrate measured after 40 mins in presence of [gamma33P]ATP by scintillation counting method"}, "[6]": {"biological_target": "Ephrin type-A receptor 3 (Homo sapiens) (UniProt P29320)", "assay": "Inhibition of recombinant human EphA3 (578 to end residues) assessed as residual activity at 10 uM using poly(Glu, Tyr) 4:1 as substrate measured after 40 mins in presence of [gamma33P]ATP by scintillation counting method"}, "HCT-116 [7]": {"test_system": "HCT-116", "assay": "Cell cycle arrest in human HCT116 cells assessed as up regulation of CyclinB1 expression up to 150 nM after 24 hrs by Western blot analysis", "assay_type": "functional, cell-based"}, "[8]": {"biological_target": "Receptor-type tyrosine-protein kinase FLT3 (Homo sapiens) (UniProt P36888)", "assay": "Inhibition of recombinant human Flt3 (564 to end residues) assessed as residual activity at 10 uM using EAIYAAPFAKKK as substrate measured after 40 mins in presence of [gamma33P]ATP by scintillation counting method"}, "[9]": {"test_system": "Ribosomal protein S6 kinase beta-1 (Homo sapiens), P23443 [T412E]", "sequence (P23443 whole entry T412E, looked up, the tested form may be a part)": "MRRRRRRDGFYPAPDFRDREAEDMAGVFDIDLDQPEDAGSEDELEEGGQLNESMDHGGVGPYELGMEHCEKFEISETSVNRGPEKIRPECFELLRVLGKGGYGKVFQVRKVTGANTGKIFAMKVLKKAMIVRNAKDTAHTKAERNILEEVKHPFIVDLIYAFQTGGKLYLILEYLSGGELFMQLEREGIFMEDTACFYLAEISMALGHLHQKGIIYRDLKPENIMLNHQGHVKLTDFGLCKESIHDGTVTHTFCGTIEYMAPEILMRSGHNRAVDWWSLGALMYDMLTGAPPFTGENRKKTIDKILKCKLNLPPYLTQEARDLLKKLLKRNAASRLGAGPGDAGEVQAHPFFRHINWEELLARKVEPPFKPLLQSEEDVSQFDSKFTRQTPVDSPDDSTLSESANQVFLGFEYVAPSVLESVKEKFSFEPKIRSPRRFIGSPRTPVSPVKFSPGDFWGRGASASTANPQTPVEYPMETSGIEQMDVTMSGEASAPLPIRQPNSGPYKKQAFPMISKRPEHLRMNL", "assay": "Inhibition of recombinant human p70S6K T412E mutant (1 to 421 residues) assessed as residual activity at 10 uM using KKRNRTLTV as substrate measured after 40 mins in presence of [gamma33P]ATP by scintillation counting method"}, "[10]": {"biological_target": "Mitogen-activated protein kinase kinase kinase 5 (Homo sapiens) (UniProt Q99683)", "assay": "Inhibition of recombinant human ASK1 (649 to 946 residues) assessed as residual activity at 10 uM using myelin basic protein as substrate measured after 40 mins in presence of [gamma33P]ATP by scintillation counting method"}, "[11]": {"biological_target": "Fibroblast growth factor receptor 4 (Homo sapiens) (UniProt P22455)", "assay": "Inhibition of recombinant human FGFR4 (442 to 755 residues) assessed as residual activity at 10 uM using poly(Glu, Tyr) 4:1 as substrate measured after 40 mins in presence of [gamma33P]ATP by scintillation counting method"}, "[12]": {"biological_target": "3-phosphoinositide-dependent protein kinase 1 (Homo sapiens) (UniProt O15530)", "assay": "Inhibition of recombinant human PDK1 (52 to end residues) assessed as residual activity at 10 uM using PDKtide as substrate measured after 40 mins in presence of [gamma33P]ATP by scintillation counting method"}, "[13]": {"biological_target": "Myosin-IIIb (Homo sapiens) (UniProt Q8WXR4)", "assay": "Inhibition of recombinant full-length human MYO3B (1 to 326 residues) assessed as residual activity at 10 uM using RLGRDKYKTLRQIRQ as substrate measured after 40 mins in presence of [gamma33P]ATP by scintillation counting method"}, "[14]": {"biological_target": "Casein kinase II subunit alpha (Homo sapiens) (UniProt P68400)", "sequence (P68400 whole entry, looked up)": "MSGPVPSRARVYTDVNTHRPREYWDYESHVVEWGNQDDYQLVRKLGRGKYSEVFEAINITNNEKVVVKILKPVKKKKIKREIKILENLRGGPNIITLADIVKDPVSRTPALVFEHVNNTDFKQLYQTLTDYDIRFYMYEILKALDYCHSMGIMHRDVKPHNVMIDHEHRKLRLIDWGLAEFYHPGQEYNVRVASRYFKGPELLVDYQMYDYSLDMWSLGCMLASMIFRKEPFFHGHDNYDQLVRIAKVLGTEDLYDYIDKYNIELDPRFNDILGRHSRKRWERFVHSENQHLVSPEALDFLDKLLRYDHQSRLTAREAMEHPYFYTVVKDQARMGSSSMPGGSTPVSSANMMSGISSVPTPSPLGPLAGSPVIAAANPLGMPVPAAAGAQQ", "assay": "Inhibition of recombinant full length human CK2alpha1 assessed as residual activity at 10 uM using RRRDDDSDDD as substrate measured after 40 mins in presence of [gamma33P]ATP by scintillation counting method"}, "[15]": {"biological_target": "Insulin-like growth factor 1 receptor (Homo sapiens) (UniProt P08069)", "assay": "Inhibition of recombinant human activated IGF1R (959 to end residues) assessed as residual activity at 10 uM using KKKSPGEYVNIEFG as substrate measured after 40 mins in presence of [gamma33P]ATP by scintillation counting method"}, "[16]": {"biological_target": "Serine/threonine-protein kinase Nek9 (Homo sapiens) (UniProt Q8TD19)", "assay": "Inhibition of recombinant human NEK9 (1 to 324 residues) assessed as residual activity at 10 uM using myelin basic protein as substrate measured after 40 mins in presence of [gamma33P]ATP by scintillation counting method"}, "[17]": {"biological_target": "Proto-oncogene tyrosine-protein kinase receptor Ret (Homo sapiens) (UniProt P07949)", "sequence (P07949 whole entry)": "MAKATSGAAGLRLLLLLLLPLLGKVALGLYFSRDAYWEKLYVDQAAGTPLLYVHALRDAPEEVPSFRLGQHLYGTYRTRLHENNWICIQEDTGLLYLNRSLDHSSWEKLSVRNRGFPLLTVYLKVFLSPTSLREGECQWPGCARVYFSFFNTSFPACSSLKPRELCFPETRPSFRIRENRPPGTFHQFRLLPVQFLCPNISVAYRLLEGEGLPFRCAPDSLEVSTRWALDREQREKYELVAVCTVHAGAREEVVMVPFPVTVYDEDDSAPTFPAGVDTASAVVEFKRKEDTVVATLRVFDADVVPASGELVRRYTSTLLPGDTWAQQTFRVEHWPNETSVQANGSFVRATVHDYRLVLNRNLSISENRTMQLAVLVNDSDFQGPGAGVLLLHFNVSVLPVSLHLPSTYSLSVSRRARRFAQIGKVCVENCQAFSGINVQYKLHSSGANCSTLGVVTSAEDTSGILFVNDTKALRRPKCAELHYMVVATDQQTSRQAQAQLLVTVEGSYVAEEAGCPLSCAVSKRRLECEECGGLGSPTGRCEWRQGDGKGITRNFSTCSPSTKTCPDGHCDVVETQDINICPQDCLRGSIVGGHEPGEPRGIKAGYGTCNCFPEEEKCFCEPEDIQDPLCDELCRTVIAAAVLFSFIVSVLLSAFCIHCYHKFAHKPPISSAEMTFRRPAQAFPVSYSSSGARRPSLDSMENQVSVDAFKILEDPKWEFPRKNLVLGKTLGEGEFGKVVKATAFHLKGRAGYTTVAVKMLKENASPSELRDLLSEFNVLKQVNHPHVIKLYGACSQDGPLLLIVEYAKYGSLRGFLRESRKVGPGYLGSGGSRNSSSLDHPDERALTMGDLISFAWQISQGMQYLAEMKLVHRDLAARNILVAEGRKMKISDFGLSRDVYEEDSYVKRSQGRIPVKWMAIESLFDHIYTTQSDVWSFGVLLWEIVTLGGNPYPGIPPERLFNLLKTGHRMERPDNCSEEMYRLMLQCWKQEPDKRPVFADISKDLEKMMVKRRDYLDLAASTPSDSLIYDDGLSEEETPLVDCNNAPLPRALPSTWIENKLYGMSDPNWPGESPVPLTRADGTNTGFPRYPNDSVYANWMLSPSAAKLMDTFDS", "assay": "Inhibition of human Ret (658 to end residues) using KKKSPGEYVNIEFG as substrate measured after 40 mins in presence of [gamma33P]ATP by scintillation counting method", "parameters": "scale not given: the % may be the effect or the level left"}, "[18]": {"test_system": "RAC-gamma serine/threonine-protein kinase (Homo sapiens), Q9Y243 [S472D]", "assay": "Inhibition of recombinant full-length human PKBgamma S472D mutant (117 to end residues) assessed as residual activity at 10 uM using GRPRTSSFAEGKK as substrate measured after 40 mins in presence of [gamma33P]ATP by scintillation counting method"}, "[19]": {"biological_target": "PI3-kinase p110-alpha/p85-alpha (Homo sapiens) (UniProt P27986+P42336)", "assay": "Inhibition of recombinant full-length human PI3K p110alpha/p85alpha assessed as residual activity at 10 uM using phosphatidylinositol-4, 5-bisphosphate as substrate measured after 40 mins by fluorescence assay", "assay_type": "protein-complex assay"}, "[20]": {"biological_target": "Serine/threonine-protein kinase BRSK1 (Homo sapiens) (UniProt Q8TDC3)", "sequence (Q8TDC3 whole entry)": "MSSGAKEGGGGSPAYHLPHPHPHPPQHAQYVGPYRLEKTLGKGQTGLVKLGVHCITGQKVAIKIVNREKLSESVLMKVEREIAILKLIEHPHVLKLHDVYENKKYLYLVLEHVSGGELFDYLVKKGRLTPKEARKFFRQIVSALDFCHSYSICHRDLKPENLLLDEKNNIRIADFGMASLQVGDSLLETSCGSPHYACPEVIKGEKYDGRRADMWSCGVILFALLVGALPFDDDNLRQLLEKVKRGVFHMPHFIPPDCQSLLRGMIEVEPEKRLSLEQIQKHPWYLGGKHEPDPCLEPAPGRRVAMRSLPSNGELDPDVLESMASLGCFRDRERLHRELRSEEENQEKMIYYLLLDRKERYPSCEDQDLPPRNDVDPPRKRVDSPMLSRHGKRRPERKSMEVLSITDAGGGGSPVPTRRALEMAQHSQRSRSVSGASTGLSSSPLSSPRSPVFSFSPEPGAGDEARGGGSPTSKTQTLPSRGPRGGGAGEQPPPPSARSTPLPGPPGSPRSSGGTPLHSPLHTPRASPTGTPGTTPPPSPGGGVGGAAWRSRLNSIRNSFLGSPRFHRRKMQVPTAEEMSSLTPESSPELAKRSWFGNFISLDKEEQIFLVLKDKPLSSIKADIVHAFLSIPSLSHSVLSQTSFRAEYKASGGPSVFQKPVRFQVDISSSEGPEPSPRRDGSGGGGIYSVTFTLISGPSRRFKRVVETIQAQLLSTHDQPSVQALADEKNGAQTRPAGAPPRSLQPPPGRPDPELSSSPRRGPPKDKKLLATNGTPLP", "assay": "Inhibition of recombinant human BrSK1 (2 to end residues) assessed as residual activity at 10 uM using KKKVSRSGLYRSPSMPENLNRPR as substrate measured after 120 mins in presence of [gamma33P]ATP by scintillation counting method"}, "SW-620": {"test_system": "SW-620", "assay": "Induction of apoptosis in human SW620 cells assessed as increase in Bax expression up to 200 nM measured after 48 hrs by Western blot analysis", "assay_type": "functional, cell-based"}, "[21]": {"biological_target": "MAP kinase-interacting serine/threonine-protein kinase 2 (Homo sapiens) (UniProt Q9HBH9)", "assay": "Inhibition of recombinant full-length human Mnk2 assessed as residual activity at 10 uM using myelin basic protein as substrate measured after 40 mins in presence of [gamma33P]ATP by scintillation counting method"}}, "note": "Activity calls are given as the source filed them. The rule behind the calls is not given here.", "data": [{"smiles": "Cc1cc(C)c(CNc2nc(Cl)nc3c2ncn3C2CCCC2)c(=O)[nH]1", "values": [{"measurement": "Activity", "setting": "[1]", "value": 99.5, "unit": "%"}, {"measurement": "Activity", "setting": "[2]", "value": 110, "unit": "%"}, {"measurement": "Activity", "setting": "HCT-116 [3]", "value": "Dose-dependent effect"}, {"measurement": "Activity", "setting": "[4]", "value": 120, "unit": "%"}, {"measurement": "IC50", "setting": "HT-29", "value": 71, "unit": "nM"}, {"measurement": "Activity", "setting": "[5]", "value": 101, "unit": "%"}, {"measurement": "Activity", "setting": "[6]", "value": 102, "unit": "%"}, {"measurement": "Activity", "setting": "HCT-116 [7]", "value": "Active"}, {"measurement": "Activity", "setting": "[8]", "value": 130, "unit": "%"}, {"measurement": "Activity", "setting": "[9]", "value": 105, "unit": "%"}, {"measurement": "Activity", "setting": "[10]", "value": 102, "unit": "%"}, {"measurement": "Activity", "setting": "[11]", "value": 100, "unit": "%"}, {"measurement": "Activity", "setting": "[12]", "value": 91, "unit": "%"}, {"measurement": "Activity", "setting": "[13]", "value": 111, "unit": "%"}, {"measurement": "Activity", "setting": "[14]", "value": 88, "unit": "%"}, {"measurement": "Activity", "setting": "[15]", "value": 90.5, "unit": "%"}, {"measurement": "Activity", "setting": "[16]", "value": 102, "unit": "%"}, {"measurement": "Activity", "setting": "[17]", "value": 100, "unit": "%"}, {"measurement": "Activity", "setting": "[18]", "value": 91, "unit": "%"}, {"measurement": "Activity", "setting": "[19]", "value": 99.5, "unit": "%"}, {"measurement": "Activity", "setting": "[20]", "value": 140, "unit": "%"}, {"measurement": "Activity", "setting": "SW-620", "value": "Active"}, {"measurement": "Activity", "setting": "[21]", "value": 88, "unit": "%"}]}]}
